From PubChem BioAssay AID1963973 (Molecular Pharmacology Branch, DTP, NCI, 2024)
Blank lines part the entries; values can stand above or below the compound they belong to.

Tested on: 883617-216-R-J1-PDC tumor spheroids, viability
Assay: Anticancer human tumor 883617-216-R-J1-PDC patient-derived bladder carcinoma cell line growth inhibition [PI3K]
Settings: spheroids with HUVEC and MSC; for viability, T/C: stronger effect = lower value
In short: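 Stroma-containing spheroids: tumor line, pooled-donor HUVEC, hMSC. Treatments: targeted agents with PI3K inhibitors. Dosing: clinically relevant, half-log spacing, 10 microM ceiling without known Cmax. Read-out: cell viability.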

[1] = curve of first compound, second compound 0.0316 µM
[2] = curve of first compound, second compound 0.1 µM
[3] = curve of first compound, second compound 0.316 µM
[4] = curve of first compound, second compound 1 µM
[5] = curve of first compound, second compound 3.16 µM
[6] = curve of first compound, second compound 10 µM
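Note: spheroids exposed to agents for 7 days before the viability read.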

IC50 [1]: 49.5 nM
IC50 [2]: 22.4 nM
IC50 [3]: < 9.49 nM
IC50 [4]: < 9.49 nM
IC50 [5]: < 9.49 nM
IC50 [6]: < 9.49 nM
SMILES: Cn1cnc2c(F)c(Nc3ccc(Br)cc3Cl)c(C(=O)NOCCO)cc21 + Cc1nc(NC(=O)N2CCCC2C(N)=O)sc1-c1ccnc(C(C)(C)C(F)(F)F)c1
viability, T/C (second compound 0.0316 µM, first compound 0.00949 µM): 64.4%
viability, T/C (second compound 0.0316 µM, first compound 0.03 µM): 48.8%
viability, T/C (second compound 0.0316 µM, first compound 0.0949 µM): 41.5%
viability, T/C (second compound 0.0316 µM, first compound 0.3 µM): 44.2%
viability, T/C (second compound 0.0316 µM, first compound 0.949 µM): 30.8%
viability, T/C (second compound 0.0316 µM, first compound 3 µM): 19.5%
viability, T/C (second compound 0.1 µM, first compound 0.00949 µM): 62.3%
viability, T/C (second compound 0.1 µM, first compound 0.03 µM): 45.1%
viability, T/C (second compound 0.1 µM, first compound 0.0949 µM): 33.5%
viability, T/C (second compound 0.1 µM, first compound 0.3 µM): 27.7%
viability, T/C (second compound 0.1 µM, first compound 0.949 µM): 23.2%
viability, T/C (second compound 0.1 µM, first compound 3 µM): 15.9%
viability, T/C (second compound 0.316 µM, first compound 0.00949 µM): 41.4%
viability, T/C (second compound 0.316 µM, first compound 0.03 µM): 27.9%
viability, T/C (second compound 0.316 µM, first compound 0.0949 µM): 25.8%
viability, T/C (second compound 0.316 µM, first compound 0.3 µM): 20.7%
viability, T/C (second compound 0.316 µM, first compound 0.949 µM): 16.8%
viability, T/C (second compound 0.316 µM, first compound 3 µM): 9.49%
viability, T/C (second compound 1 µM, first compound 0.00949 µM): 18.6%
viability, T/C (second compound 1 µM, first compound 0.03 µM): 19%
viability, T/C (second compound 1 µM, first compound 0.0949 µM): 15.9%
viability, T/C (second compound 1 µM, first compound 0.3 µM): 14%
viability, T/C (second compound 1 µM, first compound 0.949 µM): 11.9%
viability, T/C (second compound 1 µM, first compound 3 µM): 4.92%
viability, T/C (second compound 3.16 µM, first compound 0.00949 µM): 11.2%
viability, T/C (second compound 3.16 µM, first compound 0.03 µM): 8.7%
viability, T/C (second compound 3.16 µM, first compound 0.0949 µM): 10.1%
viability, T/C (second compound 3.16 µM, first compound 0.3 µM): 7.89%
viability, T/C (second compound 3.16 µM, first compound 0.949 µM): 4.92%
viability, T/C (second compound 3.16 µM, first compound 3 µM): 2.19%
viability, T/C (second compound 10 µM, first compound 0.00949 µM): 4.41%
viability, T/C (second compound 10 µM, first compound 0.03 µM): 3.98%
viability, T/C (second compound 10 µM, first compound 0.0949 µM): 3.69%
viability, T/C (second compound 10 µM, first compound 0.3 µM): 3.12%
viability, T/C (second compound 10 µM, first compound 0.949 µM): 2.43%
viability, T/C (second compound 10 µM, first compound 3 µM): 1.07%

IC50 (curve of compound): 4.76 µM [middle of 4 runs]
SMILES: CCCS(=O)(=O)Nc1ccc(F)c(C(=O)c2c[nH]c3ncc(-c4ccc(Cl)cc4)cc23)c1F
viability, T/C (compound 0.0316 µM): 99.5% [middle of 4 runs]
viability, T/C (compound 0.1 µM): 98.2% [middle of 4 runs]
viability, T/C (compound 0.316 µM): 97% [middle of 4 runs]
viability, T/C (compound 3.16 µM): 73.8% [middle of 4 runs]
viability, T/C (compound 10 µM): 9.39% [middle of 4 runs]

IC50 [1]: > 10000 nM
IC50 [2]: > 10000 nM
IC50 [3]: 2000 nM
IC50 [4]: < 31.6 nM
IC50 [5]: < 31.6 nM
IC50 [6]: < 31.6 nM
SMILES: C[C@@H](NC(=O)c1ncnc(N)c1Cl)c1ncc(C(=O)Nc2cc(C(F)(F)F)c(Cl)cn2)s1 + Cc1nc(NC(=O)N2CCCC2C(N)=O)sc1-c1ccnc(C(C)(C)C(F)(F)F)c1
viability, T/C (second compound 0.0316 µM, first compound 0.0316 µM): 89.3%
viability, T/C (second compound 0.0316 µM, first compound 0.1 µM): 91.5%
viability, T/C (second compound 0.0316 µM, first compound 0.316 µM): 94.9%
viability, T/C (second compound 0.0316 µM, first compound 1 µM): 85.2%
viability, T/C (second compound 0.0316 µM, first compound 3.16 µM): 82.1%
viability, T/C (second compound 0.0316 µM, first compound 10 µM): 58%
viability, T/C (second compound 0.1 µM, first compound 0.0316 µM): 69%
viability, T/C (second compound 0.1 µM, first compound 0.1 µM): 74.2%
viability, T/C (second compound 0.1 µM, first compound 0.316 µM): 73.3%
viability, T/C (second compound 0.1 µM, first compound 1 µM): 73%
viability, T/C (second compound 0.1 µM, first compound 3.16 µM): 75.1%
viability, T/C (second compound 0.1 µM, first compound 10 µM): 57.7%
viability, T/C (second compound 0.316 µM, first compound 0.0316 µM): 48.3%
viability, T/C (second compound 0.316 µM, first compound 0.1 µM): 52.6%
viability, T/C (second compound 0.316 µM, first compound 0.316 µM): 49.7%
viability, T/C (second compound 0.316 µM, first compound 1 µM): 53.8%
viability, T/C (second compound 0.316 µM, first compound 3.16 µM): 48.8%
viability, T/C (second compound 0.316 µM, first compound 10 µM): 37.9%
viability, T/C (second compound 1 µM, first compound 0.0316 µM): 29.6%
viability, T/C (second compound 1 µM, first compound 0.1 µM): 33.4%
viability, T/C (second compound 1 µM, first compound 0.316 µM): 29.2%
viability, T/C (second compound 1 µM, first compound 1 µM): 33%
viability, T/C (second compound 1 µM, first compound 3.16 µM): 24.9%
viability, T/C (second compound 1 µM, first compound 10 µM): 24.4%
viability, T/C (second compound 3.16 µM, first compound 0.0316 µM): 15.3%
viability, T/C (second compound 3.16 µM, first compound 0.1 µM): 14.3%
viability, T/C (second compound 3.16 µM, first compound 0.316 µM): 16.9%
viability, T/C (second compound 3.16 µM, first compound 1 µM): 15.7%
viability, T/C (second compound 3.16 µM, first compound 3.16 µM): 16.6%
viability, T/C (second compound 3.16 µM, first compound 10 µM): 12.1%
viability, T/C (second compound 10 µM, first compound 0.0316 µM): 9.78%
viability, T/C (second compound 10 µM, first compound 0.1 µM): 8.18%
viability, T/C (second compound 10 µM, first compound 0.316 µM): 11.9%
viability, T/C (second compound 10 µM, first compound 1 µM): 8.65%
viability, T/C (second compound 10 µM, first compound 3.16 µM): 7.27%
viability, T/C (second compound 10 µM, first compound 10 µM): 3.76%
